Experimental data as given in patent US9861703B2 (Jinan Platinum Pharmatech Co. Ltd., priority 2013, dated 2018).

Assays:
[1] = system: human prostate cancer cell line PC-3; experiment: MTT proliferation inhibition, PC-3; assay type: cell-based; settings: 48 h
Description: (§1) Human leukemia cell line K562, clear-cell ovarian carcinoma cell line ES-2, human prostate cancer cell line PC-3, human breast cancer cell line MCF-7, cell line Hela, human liver cancer cell line H7402 and human ovarian cancer cell line 3-AO were transferred into a culture flask and were cultured in a medium at 37° C. in a 5% CO2 and saturation humidity. One bottle of cells in logarithmic growth phase was picked out and was blew and beaten to be uniform with a pipette, then took some cell suspension solution to prepare blood counting plate smear to count cells under inverted microscope, and then adjusted the cell number to be 1×10^5/mL by adding some culture medium. Cells were seeded on a 96-well plate on which also drug tests performed. Blank control group, negative control group, positive control group and drug test group were established on the plate while the surrounding wells of the plate were not used (but filled with sterile PBS), wherein the blank control groups were prepared by addition of culture medium 150 μL per well, the negative control groups were prepared by addition of cell suspension solution 100 μL per well and culture medium 50 μL per well, the positive control groups were prepared by addition of cell suspension solution 100 μL per well and positive control drug solution 50 μL per well, the drug test groups were prepared by addition of cell suspension solution 100 μL per well and test compound solution 50 μL per well, and there were 5 different concentrations of drug in the positive control group and the drug test group respectively: 0.01, 0.1, 1, 10, 100 μmol·L^−1, each concentration was established with 3 parallel wells. After the drug was added, the 96-well plate was incubated for 48 h at 37° C. in a CO2 incubator of 5% CO2 and saturation humidity. Upon completion of the incubation, 20 μL MTT solution (concentration was 5 mg/mL) was added to each well and incubated for an additional 4 h, and after the 96-well plate was centrifuged at 2000 rpm for 30 min, medium of each well was suck out carefully and removed and 100 μL DMSO was added instead, followed by vibrating on a tablet shaker for 15 min to re-dissolve formazan crystals completely. OD value of each well was measured at 570 nm wavelength using an enzyme-linked immunosorbent assay reader to calculate cellular proliferation inhibitory ratio of each drug in different concentrations. And half-inhibitory concentration (IC50) was calculated using statistical software SPSS 16.0, wherein the cellular proliferation inhibitory ratio can be calculated as following equation: […]

liver cancer H22 [2] = experiment: Inhibition assay of intravenous administration against liver cancer H22 (Example 33); settings: tail intravenous injection; for Number of mice alive: 7 mice per group, two cycles; for Tumor weight / inhibitory ratio (%): sacrificed after 13 days
Description: Extracted the ascites from H22 ascites tumour bearing mice, washed the ascites with sterile PBS for three times and then resuspended the cells with sterile PBS (cells counts: 3.75×10^7 cells/mL), inoculated it into right oxter of Kunming mice 100 uL per mouse.
The H22 tumor-bearing mice were randomized to 4 groups (7 mice per group) after being weighted. […] The size of tumor was measured by using a vernier calliper and weight of mouse by using an electronic balance at the beginning and ending of every cycle, then calculated their mean value. The mice were sacrificed after 13 days and the tumors were taken out and weighted. Tumor volume and inhibitory ratio were calculated as the following equation (L and W referred to length and width of tumor respectively): […]

[3] = system: human leukemia cell line K562; experiment: MTT proliferation inhibition, K562; assay type: cell-based; settings: 48 h
Description: as §1

[4] = system: human breast cancer cell line MCF-7; experiment: MTT proliferation inhibition, MCF-7; assay type: cell-based; settings: 48 h
Description: as §1

cell line Hela = experiment: MTT proliferation inhibition, Hela; assay type: cell-based
Description: as §1

[5] = system: human ovarian cancer cell line 3-AO; experiment: MTT proliferation inhibition, 3-AO; assay type: cell-based; settings: 48 h
Description: as §1

liver cancer H22 [6] = experiment: Inhibition assay of oral administration against liver cancer H22 (Example 33); assay type: in vivo, Kunming mice; settings: oral gavage, 100 mg/kg/d, sacrificed after 13 days
Description: (1) the negative control: PBS; (2) Xeloda group: 100 mg/kg/d; (3) TFU group: 70 mg/kg/d; (4) BC-01 group: 100 mg/kg/d.
[formula] [formula] [formula] 2.2: Inhibition Assay of Intravenous Administration Against Liver Cancer H22

Compound: CC(C)C[C@H](NC(=O)[C@@H](O)[C@H](N)Cc1ccccc1)C(=O)NCC(=O)OCn1cc(F)c(=O)[nH]c1=O.Cl [BC-02, (5-fluoro-2,4-dioxo-3,4-dihydropyrimidinyl-1(2H))methyl-2-((S)-2-((2S,3R)-3-amino-2-hydroxy-4-phenylbutanamido)-4-methylpentanamido)acetate hydrochloride]
- EC50 [1]: 3.45 µM
- Number of mice alive (liver cancer H22 [2]; 70 mg/kg/d): 7
- Body weight(g) Beginning (liver cancer H22 [2]; 70 mg/kg/d): 31.81 ± 4.99 g
- Body weight(g) Ending (liver cancer H22 [2]; 70 mg/kg/d): 32.83 ± 4.64 g
- Tumor weight (liver cancer H22 [2]; 70 mg/kg/d): 0.63 ± 0.01 g
- inhibitory ratio (%) (liver cancer H22 [2]; 70 mg/kg/d): 54.31%

Compound: CC(C)C[C@H](NC(=O)[C@@H](O)[C@H](N)Cc1ccccc1)C(=O)OCn1cc(F)c(=O)[nH]c1=O.Cl [BC-01, (S)-(5-fluoro-2,4-dioxo-3,4-dihydropyrimidinyl-1(2H))methyl-2-((2S,3R)-3-(amino)-2-hydroxy-4-phenylbutyryl)-4-methylpentanoate hydrochloride]
- EC50 [3]: 5.82 µM
- EC50 [1]: 10.7 µM
- EC50 [4]: 1.35 µM
- proliferation inhibition activity against Hela compared with ubenimex and 5-FU (cell line Hela): much higher proliferation inhibition activity
- EC50 (cell line Hela; 48 h): 0.73 µM
- EC50 [5]: 2.59 µM
- Tumor weight (liver cancer H22 [6]; two cycles (5 days on, 2 off)): 0.26 g
- inhibitory ratio (%) (liver cancer H22 [6]; two cycles): 66.67%
- Number of mice alive (liver cancer H22 [2]; 50 mg/kg/d): 7
- Body weight(g) Beginning (liver cancer H22 [2]; 50 mg/kg/d): 30.32 ± 1.57 g
- Body weight(g) Ending (liver cancer H22 [2]; 50 mg/kg/d): 31.53 ± 4.71 g
- Tumor weight (liver cancer H22 [2]; 50 mg/kg/d): 0.58 ± 0.12 g
- inhibitory ratio (%) (liver cancer H22 [2]; 50 mg/kg/d): 57.66%
- Number of mice alive (liver cancer H22 [2]; 70 mg/kg/d): 7
- Body weight(g) Beginning (liver cancer H22 [2]; 70 mg/kg/d): 30.00 ± 1.15 g
- Body weight(g) Ending (liver cancer H22 [2]; 70 mg/kg/d): 31.05 ± 1.78 g
- Tumor weight (liver cancer H22 [2]; 70 mg/kg/d): 0.37 ± 0.08 g
- inhibitory ratio (%) (liver cancer H22 [2]; 70 mg/kg/d): 73.00%
